Laboratory results taken from patent US9538754B2, “Combinations of pyrimethanil and monoterpenes” (Janssen Pharmaceutica NV, priority 2010, dated 2017).

Key:
Experiment in all cases: Poison Plate Assay
Format in all cases: cell-based
[1] = system: Ulocladium atrum IMI 214669a; details: Alternaria atra, IMI214669A, 336 h, pyrimethanil (I) with β-thujaplicin (II-b), ppm total active ingredient, Glucose Agar, 27° C., growth evaluated after two weeks, read-out: MIC-values (minimum inhibitory concentration) in ppm
Method: (§1) • Name of component (I): pyrimethanil • Name of component (II): thymol (II-a) • β-thujaplicin (II-b) • Test models: Fungi: to each well of a 24-well microliter plate, 1000 μl of Glucose Agar (GA: 10 g glucose, 1.5 g K2HPO4, 2 g KH2PO4, 1 g (NH4)2SO4, 0.5 g MgSO4 and 12.5 g agar in 1 liter deionised water) containing the appropriate combination of the test compounds in one of the concentrations of a dose series is added. The nutrient medium is inoculated with the test fungi by adding a sporeimycelium suspension (10 μl) or a small piece of agar from the margin of an actively growing colony and incubated under dark at 27° C. with 70% relative humidity. […] In addition to this dose series, pyrimethanil single was also tested at 9.50-7.13-5.34-4.01-3.01-2.25-1.69-1.27-0.95-0.71-0.53-0.40 ppm in order to define a lower limit to its activity.
(§2) A. G. Nass (1957) “Some aspects of the notions additivity, synergism and antagonism in the simultaneous activity of two antibacterial agents in vitro” Arch. intern. Pharmaco-dynamie 109: 211-228; Steinberg, D. C. (2000) “Measuring synergy” cosmetics & Toiletries 115(11): 59-62; and Lada, A., A. N. Petrocci, H. A. Green, and J. J. Merianos (1977) “Antimicrobial composition” U.S. Pat. No. 4,061,750, 3 pp.):
(§3) [formula] wherein: • QA is the concentration of compound A in ppm, acting alone, which produced an end point (e.g. MIC), • Qa is the concentration of compound A in ppm, in the mixture, which produced an end point (e.g. MIC), • QB is the concentration of compound B in ppm, acting alone, which produced an end point (e.g. MIC), • Qb is the concentration of compound B in ppm, in the mixture, which produced an end point (e.g. MIC). When the Synergy Index is greater than 1.0, antagonism is indicated. When the SI is equal to 1.0, additivity is indicated.

[2] = system: Stachybotrys atra CBS328.37; details: CBS328, 336 h, pyrimethanil (I) with thymol (II-a), ppm total active ingredient, Glucose Agar, 27° C., growth evaluated after two weeks, read-out: MIC-values (minimum inhibitory concentration) in ppm
Method: as §1, §2, §3

[3] = system: Chaetomium globosum CEB1218.2; details: CEB1218.2, 336 h, pyrimethanil (I) with thymol (II-a), ppm total active ingredient, Glucose Agar, 27° C., growth evaluated after two weeks, read-out: MIC-values (minimum inhibitory concentration) in ppm
Method: as §1, §2, §3

**Q.** `Cc1cc(C)nc(Nc2ccccc2)n1` [component (I), 4,6-dimethyl-N-phenyl-2-pyrimidinamine] was tested. Which MIC [1] did it give?
**A.** The MIC was 23 µg/mL.

**Q.** What about the MIC [2] of the same compound?
**A.** Its MIC is 127 µg/mL.

**Q.** What about the MIC [3] of the same compound?
**A.** Its MIC is 400 µg/mL.
